Where “and” joins values, the source holds several entries; their conditions need not be identical. Equal values may be shown once.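 Growth conditions: 96-well plates. Treatment: test compound, 48 hours, 5 concentrations. Analysis: linear interpolation between bracketing concentrations; unreached endpoints set to highest concentration. GI50 marks 50% less growth. Definition used: TGI = concentration required for complete inhibition of growth.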

Test systems include M14 melanoma; SF-295 CNS; NCI-H226 lung; NCI-H23 lung; 786-0 renal; SK-OV-3 ovarian; SF-539 CNS; RPMI-8226 leukemia; PC-3 prostate; UO-31 renal.
What all share (assay): NCI anticancer screen, dose series, 48 h

As to `Nc1n[nH]c2ccc([C@@H]3Nc4cc5[nH]ncc5cc4[C@H]4C5CCC(C5)[C@@H]34)cc12` (stereo not given in full), the GI50 in the assay on M14 melanoma was 0.294 µM; with SF-295 CNS, 0.257 µM; in the assay on NCI-H226 lung, 1170 nM; in the assay on NCI-H23 lung it was 0.472 µM; in the assay with 786-0 renal it was 0.709 µM; with SK-OV-3 ovarian it was 16 µM. For the same compound, the GI50 in the assay on SF-539 CNS is 269 nM; in the assay on RPMI-8226 leukemia, 0.354 µM; in the assay with PC-3 prostate, 0.365 µM; in the assay with UO-31 renal, 0.626 µM. Besides, the TGI was greater than 100 µM with M14 melanoma; 19.2 µM in the assay on SF-295 CNS; 46.2 µM in the assay on NCI-H226 lung; greater than 71.7 µM with NCI-H23 lung; greater than 66.7 µM in the assay on 786-0 renal; greater than 100 µM in the assay on SK-OV-3 ovarian. Besides, the TGI in the assay with SF-539 CNS is 3.17 µM; with RPMI-8226 leukemia, 12.6 µM; with PC-3 prostate, greater than 41.9 µM; in the assay on UO-31 renal it was greater than 100 µM.
Regarding `O=C1CSC(c2ccccc2O)N1c1nnc(Cn2ccnc2)o1` (stereo not given), the GI50 is 7.97 µM with M14 melanoma; 3.11 µM with SF-295 CNS; 37200 nM in the assay on NCI-H226 lung; 14.9 µM in the assay on NCI-H23 lung; 7.8 µM with 786-0 renal; 27.6 µM with SK-OV-3 ovarian. For the same compound, the GI50 was 8830 nM in the assay with SF-539 CNS, 3.52 µM with RPMI-8226 leukemia, 6.2 µM in the assay on PC-3 prostate and 4.35 µM with UO-31 renal. In addition, the TGI in the assay with M14 melanoma was 43.9 µM; in the assay with SF-295 CNS, greater than 100 µM; in the assay on NCI-H226 lung, greater than 100 µM; in the assay with NCI-H23 lung it was 65 µM; with 786-0 renal, greater than 100 µM; with SK-OV-3 ovarian it was greater than 100 µM. For the same compound, the TGI in the assay on SF-539 CNS was 68.5 µM; in the assay on RPMI-8226 leukemia it was 24.4 µM; in the assay with PC-3 prostate, 30.4 µM; with UO-31 renal it was greater than 100 µM.
Regarding `CCN(CC)C(=S)SSC(=S)N(CC)CC`, the GI50 is 12.1 µM and 12.6 µM with M14 melanoma; 11.4 µM and 50.8 µM in the assay with SF-295 CNS; 27600 nM and 82000 nM with NCI-H226 lung; 23 µM with NCI-H23 lung; 24.1 µM and 18.6 µM in the assay with 786-0 renal; 49.4 µM and 58.9 µM with SK-OV-3 ovarian. Also, the GI50 in the assay with SF-539 CNS is 18800 nM and 17900 nM; in the assay on RPMI-8226 leukemia, 13.6 µM and 15 µM; in the assay on PC-3 prostate, 15.7 µM and 23.2 µM; in the assay with UO-31 renal, 15.6 µM and 19.7 µM. Besides, the TGI in the assay with M14 melanoma was 28.9 µM and 28.1 µM; in the assay on SF-295 CNS, > 50.2 µM and 278 µM; in the assay with NCI-H226 lung, > 58.7 µM and 307 µM; in the assay on NCI-H23 lung it was > 76.7 µM and 70.1 µM; in the assay on 786-0 renal, > 56.2 µM and 39.7 µM; in the assay with SK-OV-3 ovarian, 173 µM. For the same compound, the TGI with SF-539 CNS is 38.6 µM and 37.1 µM; with RPMI-8226 leukemia, 30.5 µM and 46.6 µM; with PC-3 prostate, 41.2 µM and 72 µM; in the assay with UO-31 renal it was 31.9 µM and 49 µM.
With `C=C1CC[C@@H]2[C@](C)(COC(C)=O)[C@H](OC(C)=O)CC[C@@]2(C)[C@@H]1CC(Nc1ccc(S(=O)(=O)Nc2nccs2)cc1)C1=CCOC1=O` (stereo not given in full), the GI50 was 2.83 µM in the assay on M14 melanoma; 13.8 µM in the assay with SF-295 CNS; 2360 nM with NCI-H226 lung; 10 µM in the assay on NCI-H23 lung; 2.55 µM in the assay on 786-0 renal; 14.4 µM in the assay with SK-OV-3 ovarian. The GI50 in the assay with SF-539 CNS was 2350 nM; in the assay on RPMI-8226 leukemia it was 2.49 µM; in the assay on PC-3 prostate it was 7.74 µM; in the assay on UO-31 renal it was 4.07 µM. Also, the TGI with M14 melanoma stood at 10.5 µM; with SF-295 CNS it was 27.2 µM; with NCI-H226 lung it was 5.37 µM; in the assay with NCI-H23 lung it was 24.8 µM; in the assay on 786-0 renal, 6.74 µM; with SK-OV-3 ovarian, 27.8 µM. For the same compound, the TGI stood at 6.31 µM in the assay with SF-539 CNS, 7.62 µM in the assay with RPMI-8226 leukemia, 21.5 µM in the assay with PC-3 prostate and 16.1 µM with UO-31 renal.
As for `COc1cc(/C=C/[N+](=O)[O-])cc(OC)c1OC`, the GI50 was 2.07 µM in the assay on M14 melanoma; 8.52 µM in the assay on SF-295 CNS; 2100 nM in the assay on NCI-H226 lung; 2.41 µM with NCI-H23 lung; 1.9 µM with 786-0 renal; 4.79 µM in the assay on SK-OV-3 ovarian. Besides, the GI50 is 2190 nM in the assay on SF-539 CNS, 3.14 µM in the assay on RPMI-8226 leukemia, 3.25 µM in the assay on PC-3 prostate and 2.05 µM with UO-31 renal. The TGI is 4.31 µM in the assay on M14 melanoma; 23.8 µM with SF-295 CNS; 5.5 µM in the assay with NCI-H226 lung; 6.44 µM in the assay on NCI-H23 lung; 3.53 µM in the assay on 786-0 renal; 16.1 µM in the assay on SK-OV-3 ovarian. Moreover, the TGI with SF-539 CNS came to 4.36 µM; in the assay on RPMI-8226 leukemia it was 8.59 µM; in the assay with PC-3 prostate, 10.6 µM; in the assay on UO-31 renal, 3.91 µM.
Turning to `COc1cccc(C2C(C#N)=C(N)Oc3c2ccc2ccccc32)c1` (stereo not given), the GI50 in the assay with M14 melanoma is less than 0.012 µM; with SF-295 CNS, less than 0.01 µM; with NCI-H226 lung, 20.8 nM; in the assay with NCI-H23 lung it was 0.026 µM; in the assay with 786-0 renal, 0.0364 µM; with SK-OV-3 ovarian, 0.0431 µM. The GI50 with SF-539 CNS was 16.6 nM; with RPMI-8226 leukemia, less than 0.019 µM; with PC-3 prostate, 0.0119 µM; with UO-31 renal, 0.054 µM. Moreover, the TGI turned out to be 13.3 µM with M14 melanoma; 10.7 µM with SF-295 CNS; 1 µM in the assay with NCI-H226 lung; 6.74 µM in the assay on NCI-H23 lung; 12.3 µM with 786-0 renal; 18.3 µM in the assay on SK-OV-3 ovarian. For the same compound, the TGI in the assay with SF-539 CNS was found to be 0.0695 µM; in the assay on RPMI-8226 leukemia it was 3.22 µM; in the assay with PC-3 prostate, 15.5 µM; in the assay on UO-31 renal it was 14.3 µM.
On to `O=c1c(O)cccn1CCCN(CCCn1cccc(O)c1=O)CCn1cccc(O)c1=O`, for which the GI50 with M14 melanoma is 5.41 µM; in the assay on SF-295 CNS it was 3.63 µM; in the assay with NCI-H226 lung, 2270 nM; in the assay on NCI-H23 lung, 21.1 µM; in the assay on 786-0 renal it was 7.81 µM; with SK-OV-3 ovarian it was 3.37 µM. Further, the GI50 with SF-539 CNS is 3120 nM; with RPMI-8226 leukemia it was 1.99 µM; with PC-3 prostate, greater than 100 µM; with UO-31 renal it was 7.6 µM. Also, the TGI is 60.2 µM with M14 melanoma; greater than 100 µM with SF-295 CNS; 61.8 µM in the assay with NCI-H226 lung; greater than 100 µM in the assay with NCI-H23 lung; greater than 100 µM with 786-0 renal; greater than 100 µM in the assay with SK-OV-3 ovarian. Further, the TGI in the assay on SF-539 CNS, in the assay on RPMI-8226 leukemia, with PC-3 prostate and in the assay on UO-31 renal was greater than 100 µM throughout.

Source of the values: PubChem BioAssay (NCI).
